Where two headings read alike, the source gives them in different places.
Legend:
Assay type in all cases: biochemical
[1] = molecular target: T1, CYP1A2 (Homo sapiens, UniProt P05177); experiment: Cocktail assay for CYPs, phenacetin O-deethylation (CYP1A2), human liver microsomes; settings: 10 μM phenacetin, 0.1 mg/mL human liver microsomes, 10 min at 37° C.; read-out: CYP IC50 (nM) 1A2
T1 construct: 0.1 mg/mL protein human liver microsomes (BD Gentest); tissue BD Gentest; host or cells: human liver microsomes
T1 sequence (P05177 1-516): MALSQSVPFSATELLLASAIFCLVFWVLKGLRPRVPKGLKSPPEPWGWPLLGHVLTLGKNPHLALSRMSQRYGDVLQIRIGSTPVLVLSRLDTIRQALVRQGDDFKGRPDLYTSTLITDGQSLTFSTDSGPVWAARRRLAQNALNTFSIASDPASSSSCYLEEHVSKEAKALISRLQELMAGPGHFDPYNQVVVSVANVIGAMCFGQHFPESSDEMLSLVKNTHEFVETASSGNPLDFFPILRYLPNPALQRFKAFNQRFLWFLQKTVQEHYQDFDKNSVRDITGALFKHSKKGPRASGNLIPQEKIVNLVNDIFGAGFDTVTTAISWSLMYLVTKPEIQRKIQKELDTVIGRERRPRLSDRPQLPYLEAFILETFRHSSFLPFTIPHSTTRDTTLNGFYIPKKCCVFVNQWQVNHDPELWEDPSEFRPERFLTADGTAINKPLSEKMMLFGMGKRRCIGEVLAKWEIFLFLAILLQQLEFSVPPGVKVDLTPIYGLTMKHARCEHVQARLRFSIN
Experimental: (§1) Determination of IC50 in a Cocktail Assay for CYPs 1A2, 2C9, 2C19, 2D6 and 3A4:
(§2) This assay was performed in a standard 96-well plate design. IC50 values were calculated from the percent inhibition observed for each test compound at 6 concentrations (for example, 0.0032, 0.016, 0.08, 0.4, 2 and 10 μM). The incubation substrate mix contains 10 μM phenacetin (1A2), 5 μM diclofenac (2C9), 30 μM mephenytoin (2C19), 5 μM dextromethorphan (2D6) and 2 μM midazolam (3A4), 0.1 mg/mL protein human liver microsomes (BD Gentest), 1 mM NAPDH, 3.3 mM MgCl2 and 100 mM potassium phosphate buffer (pH 7.4). The production of the metabolite of each probe substrate was determined after incubation for 10 min at 37° C. Quantitation of the metabolite peak area ratio against an internal standard (tolbutamide) was determined by LC/MS/MS analysis following acetonitrile treatment of the incubations.
(§3) Samples were analyzed in the MRM mode with a SCIEX API-4000 mass spectrometer (Applied Biosystems, Foster City, Calif.), with a Shimadzu LC-20 AD pump (Shimadzu corporation, Kyoto, JP) and a CTC PAL autosampler (Agilent Technologies, Switzerland). A Phenomenex, Luna, 5 nm, 100 A, 2.00×30 mm HPLC column was used for the separation. The mobile phases were: (A) 0.1% formic acid in water and (B) 0.1% formic acid in acetonitrile. The binary gradient was as follows.
(§4) The peak area ratio of the analyte to the internal standard was used to quantify the metabolite. The values of peak area ratios in the presence of test compound were compared to those of maximum or minimum controls and were expressed as % inhibition by interpolating between the maximum and minimum peak area ratios. Incubations with no inhibitor were defined as the maxima. The following equation was used to calculate the % inhibition: [1−[(X−Low control)/(High control−Low control)]]*100 For the IC50 calculation, SigmaPlot was used to plot the mean % inhibition versus the test compound concentrations and for non-linear regression analysis of the data. Depending on the range of data points defining the inhibition curve, the data may have been fit to the 4-parameter logistic equation.

[2] = molecular target: T2, CYP3A4 (Homo sapiens, UniProt P08684); experiment: IC50 vs CYP3A by inhibition of lopinavir metabolism in human liver microsomes; design: 0.01 mg/mL protein human liver microsomes (BD Gentest); tissue BD Gentest; host or cells: human liver microsomes; settings: 1.5 μM lopinavir, 0.01 mg/mL human liver microsomes, 8 min at 37° C.; read-out: CYP IC50 (nM) 3A4 (LPV)
Experimental: Determination of IC50 vs CYP3A by Measurement of Inhibition of Lopinavir Metabolism
This assay was performed in a standard 96-well plate design. IC50 values were calculated from the percent inhibition observed for each test compound at 6 concentrations (for example, 0.098, 0.391, 1.56, 6.25, 25 and 100 nM). The incubation substrate mix contains 1.5 μM lopinavir, 0.01 mg/mL protein human liver microsomes (BD Gentest), 1 mM NAPDH, 3.3 mM MgCl2 and 100 mM potassium phosphate buffer (pH 7.4). The production of the sum of three hydroxylated metabolites (M2: 6-hydroxy lopinavir, M3: 4-hydroxy lopinavir, M4: 4-hydroxy lopinavir (epimer of M3), Kumar et al., 1999) was determined after incubation for 8 min at 37° C. Quantitation of the metabolite peak area ratio against an internal standard (tolbutamide) was determined by LC/MS/MS analysis following acetonitrile treatment of the incubations.
as §3, with “μm,” for “nm,”
Target sequence in this assay (P08684 2-503): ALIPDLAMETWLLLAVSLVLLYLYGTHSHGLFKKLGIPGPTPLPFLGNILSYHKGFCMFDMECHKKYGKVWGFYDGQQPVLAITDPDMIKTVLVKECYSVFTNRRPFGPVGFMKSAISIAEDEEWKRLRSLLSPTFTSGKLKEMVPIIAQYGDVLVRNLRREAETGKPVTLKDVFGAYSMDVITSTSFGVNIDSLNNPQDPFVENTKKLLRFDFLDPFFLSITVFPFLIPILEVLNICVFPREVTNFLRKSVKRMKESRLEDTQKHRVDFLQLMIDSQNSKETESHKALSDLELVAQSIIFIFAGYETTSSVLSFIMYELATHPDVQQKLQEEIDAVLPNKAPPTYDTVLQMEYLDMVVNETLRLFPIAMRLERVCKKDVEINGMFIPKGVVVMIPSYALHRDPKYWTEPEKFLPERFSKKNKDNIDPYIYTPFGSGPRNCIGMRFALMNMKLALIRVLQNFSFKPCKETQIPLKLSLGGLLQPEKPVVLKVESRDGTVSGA
The peak area ratio of the analyte to the internal standard was used to quantify the metabolite. The values of peak area ratios in the presence of test compound were compared to those of maximum or minimum controls and were expressed as % inhibition by interpolating between the maximum and minimum peak area ratios. Incubations with no inhibitor were defined as the maxima and with 5 μM ketoconazole were defined as the minima.
The following equation was used to calculate the % inhibition: [1−[(X−Low control)/(High control−Low control)]]*100
For the IC50 calculation, SigmaPlot was used to plot the mean % inhibition versus the test compound concentrations and for non-linear regression analysis of the data. Depending on the range of data points defining the inhibition curve, the data may have been fit to the 4-parameter logistic equation.

[3] = molecular target: T3, CYP2D6 (Homo sapiens, UniProt P10635); experiment: Cocktail assay for CYPs, dextromethorphan O-demethylation (CYP2D6), human liver microsomes; settings: 5 μM dextromethorphan, 0.1 mg/mL human liver microsomes, 10 min at 37° C.; read-out: CYP IC50 (nM) 2D6
T3 construct: 0.1 mg/mL protein human liver microsomes (BD Gentest); tissue BD Gentest; host or cells: human liver microsomes
Experimental: as §1, §2, §3, §4

[4] = molecular target: T2, CYP3A4; experiment: Cocktail assay for CYPs, midazolam 1′-hydroxylation (CYP3A4), human liver microsomes; design: 0.1 mg/mL protein human liver microsomes (BD Gentest); tissue BD Gentest; host or cells: human liver microsomes; settings: 2 μM midazolam, 0.1 mg/mL human liver microsomes, 10 min at 37° C.; read-out: CYP IC50 (nM) 3A4 (MDZ)
Experimental: as §1, §2, §3, §4
Target sequence in this assay (P08684 whole entry): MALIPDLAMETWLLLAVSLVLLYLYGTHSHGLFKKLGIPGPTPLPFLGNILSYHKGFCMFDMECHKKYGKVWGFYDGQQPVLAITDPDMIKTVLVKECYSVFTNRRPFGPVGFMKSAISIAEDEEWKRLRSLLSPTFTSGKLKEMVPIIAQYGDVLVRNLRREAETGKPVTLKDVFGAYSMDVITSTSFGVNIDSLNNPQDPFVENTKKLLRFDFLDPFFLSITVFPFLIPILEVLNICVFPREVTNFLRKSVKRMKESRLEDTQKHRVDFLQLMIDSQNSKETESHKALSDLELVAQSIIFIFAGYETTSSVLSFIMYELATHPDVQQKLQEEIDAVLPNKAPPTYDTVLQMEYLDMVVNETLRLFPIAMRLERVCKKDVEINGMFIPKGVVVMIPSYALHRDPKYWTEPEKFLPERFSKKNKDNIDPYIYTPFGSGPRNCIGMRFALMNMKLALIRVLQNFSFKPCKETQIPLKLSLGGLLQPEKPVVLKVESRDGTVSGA

[5] = molecular target: T4, CYP2C19 (Homo sapiens, UniProt P33261); experiment: Cocktail assay for CYPs, mephenytoin 4′-hydroxylation (CYP2C19), human liver microsomes; settings: 0.1 mg/mL human liver microsomes, 10 min at 37° C.
T4 construct: 0.1 mg/mL protein human liver microsomes (BD Gentest); tissue BD Gentest; host or cells: human liver microsomes
Experimental: as §1
as §2, with “IC50 values were calculated from the percent inhibition observed for each test compound at 6 concentrations (for example, 0.0032, 0.016, 0.08, 0.4, 2 and 10 μM).” left out
as §3, §4

[6] = molecular target: T5, CYP2C9 (Homo sapiens, UniProt P11712); experiment: Cocktail assay for CYPs, diclofenac 4′-hydroxylation (CYP2C9), human liver microsomes; settings: 0.1 mg/mL human liver microsomes, 10 min at 37° C.
T5 construct: 0.1 mg/mL protein human liver microsomes (BD Gentest); tissue BD Gentest; host or cells: human liver microsomes
Experimental: as §1
as §2, with “IC50 values were calculated from the percent inhibition observed for each test compound at 6 concentrations (for example, 0.0032, 0.016, 0.08, 0.4, 2 and 10 μM).” left out
as §3, §4

[7] = 30 μM mephenytoin, read-out: CYP IC50 (nM) 2C19
[8] = 5 μM diclofenac, read-out: CYP IC50 (nM) 2C9

T5 sequence (P11712 whole entry): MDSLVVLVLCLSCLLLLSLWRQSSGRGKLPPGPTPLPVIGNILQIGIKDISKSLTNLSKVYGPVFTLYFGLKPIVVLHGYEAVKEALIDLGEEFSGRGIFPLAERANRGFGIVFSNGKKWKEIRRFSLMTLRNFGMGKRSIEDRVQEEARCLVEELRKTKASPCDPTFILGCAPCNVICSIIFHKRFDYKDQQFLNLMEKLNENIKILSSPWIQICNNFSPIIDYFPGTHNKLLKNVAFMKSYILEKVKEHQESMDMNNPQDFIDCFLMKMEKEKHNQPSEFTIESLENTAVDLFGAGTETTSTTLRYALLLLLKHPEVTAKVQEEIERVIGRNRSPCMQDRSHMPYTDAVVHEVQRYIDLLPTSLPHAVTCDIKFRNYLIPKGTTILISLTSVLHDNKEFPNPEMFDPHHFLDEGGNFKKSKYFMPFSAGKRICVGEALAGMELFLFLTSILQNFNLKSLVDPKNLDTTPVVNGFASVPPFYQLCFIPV
T4 sequence (P33261 whole entry): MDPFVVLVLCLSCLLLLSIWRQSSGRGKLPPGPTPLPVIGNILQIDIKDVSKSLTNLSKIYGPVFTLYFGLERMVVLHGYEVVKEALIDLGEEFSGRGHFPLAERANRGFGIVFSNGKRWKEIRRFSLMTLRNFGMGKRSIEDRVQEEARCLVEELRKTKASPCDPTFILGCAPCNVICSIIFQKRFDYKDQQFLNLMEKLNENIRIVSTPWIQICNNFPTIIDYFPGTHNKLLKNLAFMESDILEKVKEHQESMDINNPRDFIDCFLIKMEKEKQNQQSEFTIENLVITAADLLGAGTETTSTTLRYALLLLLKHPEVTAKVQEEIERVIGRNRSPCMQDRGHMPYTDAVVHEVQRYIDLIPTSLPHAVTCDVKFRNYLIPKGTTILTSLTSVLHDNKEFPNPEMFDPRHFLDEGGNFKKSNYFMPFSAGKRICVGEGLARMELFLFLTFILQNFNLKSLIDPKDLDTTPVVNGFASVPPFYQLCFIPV
T3 sequence (P10635 whole entry): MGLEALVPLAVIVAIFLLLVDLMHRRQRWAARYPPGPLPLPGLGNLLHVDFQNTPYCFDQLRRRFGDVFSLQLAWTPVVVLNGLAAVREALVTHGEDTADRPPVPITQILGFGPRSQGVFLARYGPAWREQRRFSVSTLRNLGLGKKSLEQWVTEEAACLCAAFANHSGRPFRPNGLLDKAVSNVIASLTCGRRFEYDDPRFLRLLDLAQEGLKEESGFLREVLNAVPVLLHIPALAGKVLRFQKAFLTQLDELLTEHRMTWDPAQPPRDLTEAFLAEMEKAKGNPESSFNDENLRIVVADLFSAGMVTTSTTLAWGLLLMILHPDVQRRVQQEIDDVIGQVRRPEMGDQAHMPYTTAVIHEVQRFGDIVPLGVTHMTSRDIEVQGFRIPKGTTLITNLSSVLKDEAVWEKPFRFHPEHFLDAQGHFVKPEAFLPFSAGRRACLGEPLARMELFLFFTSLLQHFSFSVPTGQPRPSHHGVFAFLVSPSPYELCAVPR

SMILES	IC50 [1] [nM]	IC50 [2] [nM]	IC50 [3] [nM]	IC50 [4] [nM]	IC50 [5, 7] [nM]	IC50 [6, 8] [nM]	IC50 ([5]; CYP IC50 (nM) 2C19, 30 μM mephenytoin) [nM]	IC50 ([6]; CYP IC50 (nM) 2C9, 5 μM diclofenac) [nM]
CN1CCN(c2ncc(S(=O)(=O)N3Cc4cccc(-c5cncn5CCc5ccc(F)cc5)c4C3)s2)CC1 [Compound 16, 5-((4-(1-(4-fluorophenethyl)-1H-imidazol-5-yl)isoindolin-2-yl)sulfonyl)-2-(4-methylpiperazin-1-yl)thiazole]	3100	9.5	360	13.2	1260	486		
CC(=O)Nc1ncc(S(=O)(=O)NCc2cccc(-c3cncn3CCc3ccc(F)cc3)c2)s1 [Compound 13, N-(5-(N-(3-(1-(4-fluorophenethyl)-1H-imidazol-5-yl)benzyl)sulfamoyl)thiazol-2-yl)acetamide]	99	5.3	348	5.9	357	65		
C[C@@H](NS(=O)(=O)c1cnc(N2CCN3C[C@H](O)C[C@H]3C2)s1)c1ccccc1-c1cncn1CCc1ccc(F)cc1 [Compound 6a, N-((R)-1-(2-(1-(4-fluorophenethyl)-1H-imidazol-5-yl)phenyl)ethyl)-2-((7R,8aS)-7-hydroxy-hexahydro-pyrrolo[1,2-a]pyrazin-2(1H)-yl)thiazole-5-sulfonamide]	> 10000	8.6	2540	7.5			8700	4550
CN(C)c1ccc(S(=O)(=O)N2CCc3c(cccc3-c3cncn3CCc3ccc(F)cc3)C2)cn1 [Compound 61, 5-((5-(1-(4-fluorophenethyl)-1H-imidazol-5-yl)-3,4-dihydroisoquinolin-2(1H)-yl)sulfonyl)-N,N-dimethyl-pyridin-2-amine]	4620	1.4	3250	7.6	65	1050		
COCCN(C)c1ccc(S(=O)(=O)N2CCc3c(cccc3-c3cncn3CCc3ccc(F)cc3)C2)cn1 [Compound 62, 5-((5-(1-(4-fluorophenethyl)-1H-imidazol-5-yl)-3,4-dihydroisoquinolin-2(1H)-yl)sulfonyl)-N-(2-methoxy-ethyl)-N-methylpyridin-2-amine]	> 10000	1.3	2720	5.2	238	575		
O=C(c1cccnc1)N1CCCC1c1ccccc1-c1cncn1CCc1ccc(F)cc1 (single isomer, unassigned) [Compound 42b, (R or S)-(2-(2-(1-(4-fluorophenethyl)-1H-imidazol-5-yl)phenyl)pyrrolidin-1-yl) (pyridin-3-yl) methanone]	> 10000	9.3	> 10000	13.1	> 10000	> 10000		
O=S(=O)(c1ccc(N2CCOCC2)nc1)N1CCCC1c1ccccc1-c1cncn1CCc1ccc(F)cc1 (stereo not drawn) [Compound 29, 4-(5-((2-(2-(1-(4-fluorophenethyl)-1H-imidazol-5-yl)phenyl)pyrrolidin-1-yl)sulfonyl)pyridin-2-yl)morpholine]	3820	7.6	2930	8.3	3260	1860		
COc1ccc(OC)c(S(=O)(=O)N2CCCC2c2ccccc2-c2cncn2CCc2ccc(F)cc2)c1 (stereo not drawn) [Compound 27, 5-(2-(1-((2,5-dimethoxyphenyl)sulfonyl)pyrrolidin-2-yl)phenyl)-1-(4-fluorophenethyl)-1H-imidazole]	2650	41	3480	36.1	3800	1910		
O=S(=O)(c1ccc2c(c1)OCO2)N1CCCC1c1ccccc1-c1cncn1CCc1ccc(F)cc1 (stereo not drawn) [Compound 26, 5-(2-(1-(benzo[d][1,3]dioxol-5-ylsulfonyl)pyrrolidin-2-yl)phenyl)-1-(4-fluorophenethyl)-1H-imidazole]	5020	1	1650	3.8	1360	1160		
CC(=O)Nc1ncc(S(=O)(=O)N2Cc3cccc(-c4cncn4CCc4ccc(F)cc4)c3C2)s1 [Compound 15, N-(5-((4-(1-(4-fluorophenethyl)-1H-imidazol-5-yl)isoindolin-2-yl)sulfonyl)thiazol-2-yl)acetamide]	> 10000	8	1400	6.4	155	1230		

Source: patent US9975888B2, “Aryl linked imidazole and triazole derivatives and methods of use thereof for improving the pharmacokinetics of a drug” (MERCK SHARP & DOHME CORP., priority 2013, dated 2018)
